# From paper PMC13376172, “BromoCatch: a self-labelling tag platform for protein modification and live cell imaging” (Nature Communications, 2026)
# Assays:
# [1] = molecular target: T1, Brd4-BD2 L387A,E438C (BromoCatch) (Homo sapiens, UniProt O60885, L387A/E438C); assay: intact protein LC-MS covalent adduct; DSF; assay type: binding
# T1 construct: Brd4-BD2 (351–459)
# Brd4-BD2 L387A,M442C = Brd4-BD2 L387A,M442C (Homo sapiens, UniProt O60885, L387A/M442C)
# [2] = molecular target: T2, Brd4-BD2 L387A,E438C (BromoCatch) (Homo sapiens, UniProt O60885, E438C/L387A); assay: biochemical
# [3] = molecular target: T2, Brd4-BD2 L387A,E438C (BromoCatch); assay: competition FP kinetics (kinact/KI); intact protein MS; DSF ΔTm +[…] °C; streptavidin pull-down; assay type: binding; design: Brd4-BD2; conditions: read-out: kinact_KI
SMILES,intact protein LC-MS covalent adduct; DSF [1],also measured
C=CS(=O)(=O)Nc1ccc(C2=N[C@@H]([C@@H](CC)C(=O)OC)c3nnc(C)n3-c3sc(C)c(C)c32)cc1 [MR121],"vinyl sulfonamide (MR121) and acrylamide (MR116) performed as the best combinations, providing the highest percentage of covalent engagement",
C=CC(=O)Nc1ccc(C2=N[C@@H]([C@@H](CC)C(=O)OC)c3nnc(C)n3-c3sc(C)c(C)c32)cc1 [MR116],,"intact protein LC-MS covalent adduct; DSF (Brd4-BD2 L387A,M442C): (acrylamide, chloroacetamide, vinyl sulfonamide and epoxide) showed covalent modification of both cysteine-containing mutants; Ki [2]: 6.8 nM"
CC[C@@H](C(=O)OC)[C@@H]1N=C(c2ccc(NC(=O)CCl)cc2)c2c(sc(C)c2C)-n2c(C)nnc21 [MR112],"para chloroacetamide (MR112), vinyl sulfonamide (MR121) and acrylamide (MR116) performed as the best combinations",
CC[C@@H](C(=O)OC)[C@@H]1N=C(c2cccc(NC(=O)CCl)c2)c2c(sc(C)c2C)-n2c(C)nnc21 [MR118],the chloroacetamides MR112 and MR118 demonstrated a slight improvement in potency,
C=CC(=O)Nc1cccc(C2=N[C@@H]([C@@H](CC)C(=O)OC)c3nnc(C)n3-c3sc(C)c(C)c32)c1 [MR119],"Brd4-BD2^L387A,E438C exhibited excellent reactivity towards both meta and para electrophilic ligands",
C=CC(=O)Nc1ccc(C2=N[C@@H]([C@@H](CC)C(=O)NCCOCCOCCOCCOCCNC(=O)CCCC[C@@H]3SC[C@@H]4NC(=O)N[C@@H]43)c3nnc(C)n3-c3sc(C)c(C)c32)cc1 [MR169],,kinact/KI [3]: 37000 M⁻¹ s⁻¹
